Values quoted from earlier work in patent US20070160667A1, “Controlled release formulation of divalproex sodium” (priority 2006, published 2007).
Where two headings read alike, the source gives them in different places.

CCCC(CCC)C(=O)O [valproic acid, 2-Propylpentanoic acid]
elimination half-life (in adults): six and seventeen
elimination half-life (in children): four and fourteen
